Source: patent US10709707B2, “Methods of treating ocular conditions” (Oyster Point Pharma, Inc., priority 2016, dated 2020)
Where “and” joins values, the source holds several entries; their conditions need not be identical. Equal entries are not always repeated. Entries after “also recorded” stand apart in the source; their conditions may differ. Where two headings read alike, the source gives them in different places.

What was measured:
a4b4 = a4b4 (Homo sapiens, UniProt P30926+P43681); assay: Receptor binding a4b4
[1] = target: T1, rat ganglion receptors α3β4 (Rattus norvegicus, UniProt P04757+P12392); assay: Receptor function ganglionic receptors (rat), PC-12 cells; type: cell-based; details: for Emax: PC-12, Rat ganglion-type (a3b4*)
T1 construct: endogenous in cells; host or cells: PC-12 cells (per the earlier reading)

[2] = target: remaining muscarinic subtypes; assay: Follow-up dose response binding assay (CEREP)
hERG channel = hERG channel (Homo sapiens, UniProt Q12809); assay: Cardiovascular safety, hERG channel in vitro; type: cell-based
a6b3b4a5 = a6b3b4a5 (Homo sapiens, UniProt P30926+Q15825); assay: Receptor binding a6b3b4a5
[3] = target: high and low sensitivity alpha4beta2-containing NNR subtypes (Homo sapiens, UniProt P17787+P43681); assay: Electrophysiology studies; type: cell-based
Text: It is readily absorbed following oral administration and has favorable pharmacokinetics.

[4] = stability in human liver microsomes, heat-treated human liver microsomes and human S9 fractions; type: in vitro ADME; details: all test systems
Text: In human and monkey, the primary route of metabolism was through oxidation of the pyrrolidine ring (metabolite M02) before further metabolism via dioxidation to M1 or M3. In humans, parent accounted for 37% of extracellular radioactivity, M02 was 13.9%.M1 was 4.1% and M3 was 1.1%. In monkey, parent accounted for 14.2%, M02 was 5.0%, M1 was 5.8% and M3 was 29.4%. In the rat, the primary metabolite is an N-oxide-pyrimidine derivative (M9); it accounted for 71.9% of extracellular radioactivity while parent represented only 1.4%.

[5] = target: T2, α7 nicotinic acetylcholine receptor (Rattus norvegicus, UniProt Q05941); assay: Receptor binding α7, inhibition of [3H]-MLA binding, rat brain membranes
T2 construct: from tissue; host or cells: rat brain membranes (per the earlier reading)

human α3β2 = target: T3, human α3β2 (Homo sapiens, UniProt P17787+P32297); assay: Receptor binding α3β2, recombinant human receptors in HEK cells; details: [3H]-S-nicotine, human α3β2 expressed in HEK cells
T3 construct: expressed in transfected cells

[6] = 13-week repeat-dose oral toxicity in rats; type: in vivo, rat
Experimental: Compound 1 was given to rats once daily for at least 13 weeks via oral gavage at doses of 30, 100, or 300 mg/kg/day. Two of 15 females receiving 300 mg/kg/day died. Clinical signs in males and females in this high-dose group included; reduced food consumption, anogenital staining, lacrimation, chromodacryorrhea, and tremors. Laboratory results included marginally lower RBC mass that correlated with elevated reticulocyte counts with recovery; elevated liver enzymes and bilirubin throughout the dosing period, with evidence of resolution during recovery urinary changes, including increased urine volume, elevated urinary protein, and higher bilirubin and urobilinogen, with resolution during recovery. Rats receiving doses of 100 mg/kg/day and higher had clinical signs that included excessive salivation, tan brown muzzle, closed or partially closed eyelids, and reduced body weight. Laboratory results included elevated WBC (lymphocytes and neutrophils), with recovery; elevated bilirubin; and a slight decrease in total serum protein (globulins and albumin). […] At doses ≥100 mg/kg/day, microscopic findings of centrilobular hepatocellular hypertrophy, medullary adrenal gland cell hypertrophy, mucosal epithelial cell hyperplasia of the small intestine, and increased extramedullary hematopoiesis and hemosiderin deposits in the red pulp of the spleen were observed. […] Accordingly, the NOAEL was considered to be 30 mg/kg/day. […] AUC and Cmax increased between Day 1 and Day 29.

[7] = clinical studies with oral Compound 1; type: in vivo, human
Experimental: The oral form of Compound 1-A, Compound 1, has been studied in several clinical trials. A total of 108 human subjects have received Compound 1: 69 healthy volunteers in Phase 1 studies, 23 subjects in a Phase 1b gastroparesis study, and 16 subjects with constipation predominant irritable bowel syndrome (IBS-C) in a Phase 2a study. Subjects were exposed to doses of Compound 1 ranging from 5 mg through and including 200 mg.

human α4β2 = human α4β2 (Homo sapiens, UniProt P17787+P43681); assay: Receptor binding α4β2, recombinant human receptors in SH-EP1 cells; details: [3H]-S-nicotine, human α4β2 expressed in SH-EP1 cells
[8] = Solubility in aqueous solutions; type: physicochemical
[9] = system: pentylenetetrazole convulsions; assay: CNS safety pharmacology, convulsant properties with subconvulsant pentylenetetrazole; type: in vivo, Rat: Sprague-Dawley
a3b2 = target: T4, a3b2 (Homo sapiens, UniProt P17787+P32297); assay: Receptor function a3b2, Ca++ flux; type: cell-based
T4 construct: expressed in transfected cells

formalin test = assay: Analgesic effects, formalin test; type: in vivo, Mouse: CD-1; details: po; Compound 1 0.1, 1 and 10 mg/kg, Aspirin 100 mg/kg, Morphine 30 mg/kg
[10] = Single dose pharmacokinetics, rat; type: in vivo, Sprague-Dawley rat; details: for AUC(0-t): read-out: AUC0-1
plasma protein binding = type: in vitro ADME; details: mouse, rat, guinea pig, dog, monkey and human plasma; concentrations up to about 113 μM
[11] = female, rat, in vivo, po, 30 mg/kg/day
[12] = male, rat, in vivo, po, 30 mg/kg/day
[13] = Sprague-Dawley, plasma, S-D rat, 30 mg/kg [14C]-Compound 1, oral
[14] = male, Sprague-Dawley, plasma, S-D rat, 0.3 mg/kg Compound 1, oral
[15] = male, Sprague-Dawley, plasma, S-D rat, 3 mg/kg Compound 1, oral

T1 sequence (P04757 26-499): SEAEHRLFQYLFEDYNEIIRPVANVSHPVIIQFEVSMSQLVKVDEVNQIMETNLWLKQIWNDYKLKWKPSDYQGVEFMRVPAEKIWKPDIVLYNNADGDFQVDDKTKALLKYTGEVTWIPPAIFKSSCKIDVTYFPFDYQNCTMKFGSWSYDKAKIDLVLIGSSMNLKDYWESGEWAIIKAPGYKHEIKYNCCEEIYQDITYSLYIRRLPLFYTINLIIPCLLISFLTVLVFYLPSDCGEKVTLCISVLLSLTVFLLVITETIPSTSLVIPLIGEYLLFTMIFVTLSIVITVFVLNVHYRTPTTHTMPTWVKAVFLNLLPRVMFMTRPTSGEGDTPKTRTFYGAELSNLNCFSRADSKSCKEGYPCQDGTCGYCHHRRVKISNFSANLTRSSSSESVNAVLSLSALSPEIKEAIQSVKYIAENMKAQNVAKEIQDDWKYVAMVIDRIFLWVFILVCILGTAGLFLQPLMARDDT
T1 sequence (P12392 21-495): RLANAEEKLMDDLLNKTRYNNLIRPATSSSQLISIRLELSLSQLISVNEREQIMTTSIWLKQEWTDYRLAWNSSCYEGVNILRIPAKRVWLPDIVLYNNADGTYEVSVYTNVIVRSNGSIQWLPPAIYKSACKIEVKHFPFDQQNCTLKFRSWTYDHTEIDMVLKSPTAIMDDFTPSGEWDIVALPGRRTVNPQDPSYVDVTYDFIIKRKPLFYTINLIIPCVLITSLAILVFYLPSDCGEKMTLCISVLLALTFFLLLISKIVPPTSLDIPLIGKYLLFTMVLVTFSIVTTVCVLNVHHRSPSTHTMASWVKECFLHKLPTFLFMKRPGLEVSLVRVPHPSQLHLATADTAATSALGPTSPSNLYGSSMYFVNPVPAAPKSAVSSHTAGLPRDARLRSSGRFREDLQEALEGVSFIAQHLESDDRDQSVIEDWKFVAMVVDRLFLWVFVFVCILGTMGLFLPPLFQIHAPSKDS
T4 sequence (P32297 32-505): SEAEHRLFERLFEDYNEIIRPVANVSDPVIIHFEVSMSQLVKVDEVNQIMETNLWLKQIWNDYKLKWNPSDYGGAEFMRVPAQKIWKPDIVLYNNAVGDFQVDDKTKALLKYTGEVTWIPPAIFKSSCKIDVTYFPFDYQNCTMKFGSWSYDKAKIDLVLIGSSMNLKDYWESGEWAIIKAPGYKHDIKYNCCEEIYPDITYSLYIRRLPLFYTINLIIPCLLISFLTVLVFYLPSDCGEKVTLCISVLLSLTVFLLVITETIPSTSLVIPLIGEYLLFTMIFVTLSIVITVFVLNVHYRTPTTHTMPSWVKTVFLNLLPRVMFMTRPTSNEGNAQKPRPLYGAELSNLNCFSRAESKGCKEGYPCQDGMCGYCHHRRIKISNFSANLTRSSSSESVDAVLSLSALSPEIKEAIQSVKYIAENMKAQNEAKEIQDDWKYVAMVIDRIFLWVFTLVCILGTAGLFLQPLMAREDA
T4 sequence (P17787 26-502): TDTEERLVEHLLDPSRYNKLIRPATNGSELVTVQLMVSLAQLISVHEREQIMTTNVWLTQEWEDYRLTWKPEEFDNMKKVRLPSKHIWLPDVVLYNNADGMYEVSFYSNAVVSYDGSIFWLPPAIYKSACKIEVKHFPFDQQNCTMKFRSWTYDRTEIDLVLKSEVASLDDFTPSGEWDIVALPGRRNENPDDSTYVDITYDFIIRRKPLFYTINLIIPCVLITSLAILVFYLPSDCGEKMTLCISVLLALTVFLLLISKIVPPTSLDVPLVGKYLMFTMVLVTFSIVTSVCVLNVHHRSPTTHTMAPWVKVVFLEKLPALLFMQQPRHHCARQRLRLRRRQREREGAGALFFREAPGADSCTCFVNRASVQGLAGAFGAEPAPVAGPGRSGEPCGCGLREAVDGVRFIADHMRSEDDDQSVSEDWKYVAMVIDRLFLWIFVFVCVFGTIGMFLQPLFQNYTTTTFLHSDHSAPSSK
T2 sequence (Q05941 23-502): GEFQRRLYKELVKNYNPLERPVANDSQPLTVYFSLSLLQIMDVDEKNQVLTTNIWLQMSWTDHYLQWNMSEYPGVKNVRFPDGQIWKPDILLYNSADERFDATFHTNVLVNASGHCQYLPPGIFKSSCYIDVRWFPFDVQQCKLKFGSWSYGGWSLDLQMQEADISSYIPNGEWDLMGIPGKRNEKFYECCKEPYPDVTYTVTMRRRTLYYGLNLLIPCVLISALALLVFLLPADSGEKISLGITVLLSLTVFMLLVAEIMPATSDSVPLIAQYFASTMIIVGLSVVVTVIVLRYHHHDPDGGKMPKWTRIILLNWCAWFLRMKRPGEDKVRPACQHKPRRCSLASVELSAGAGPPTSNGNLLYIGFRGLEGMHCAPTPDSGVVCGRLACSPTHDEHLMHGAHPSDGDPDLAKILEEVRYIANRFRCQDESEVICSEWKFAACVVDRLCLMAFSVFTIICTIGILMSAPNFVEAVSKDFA
Sequence of a6b3b4a5 (Q15825 26-494): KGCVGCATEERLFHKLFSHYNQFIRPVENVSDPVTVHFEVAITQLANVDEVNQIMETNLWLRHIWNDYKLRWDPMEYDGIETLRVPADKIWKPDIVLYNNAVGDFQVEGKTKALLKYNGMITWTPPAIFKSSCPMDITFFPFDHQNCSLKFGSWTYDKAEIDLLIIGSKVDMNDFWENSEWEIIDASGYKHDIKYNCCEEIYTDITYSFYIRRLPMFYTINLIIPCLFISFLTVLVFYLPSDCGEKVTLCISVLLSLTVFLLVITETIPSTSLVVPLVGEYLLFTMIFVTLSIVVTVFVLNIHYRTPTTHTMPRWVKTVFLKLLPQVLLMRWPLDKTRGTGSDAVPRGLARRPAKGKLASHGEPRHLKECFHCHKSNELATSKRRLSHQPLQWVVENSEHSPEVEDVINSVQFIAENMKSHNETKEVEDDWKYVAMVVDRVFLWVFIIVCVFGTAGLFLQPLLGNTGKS
Sequence of a6b3b4a5 (P30926 22-498): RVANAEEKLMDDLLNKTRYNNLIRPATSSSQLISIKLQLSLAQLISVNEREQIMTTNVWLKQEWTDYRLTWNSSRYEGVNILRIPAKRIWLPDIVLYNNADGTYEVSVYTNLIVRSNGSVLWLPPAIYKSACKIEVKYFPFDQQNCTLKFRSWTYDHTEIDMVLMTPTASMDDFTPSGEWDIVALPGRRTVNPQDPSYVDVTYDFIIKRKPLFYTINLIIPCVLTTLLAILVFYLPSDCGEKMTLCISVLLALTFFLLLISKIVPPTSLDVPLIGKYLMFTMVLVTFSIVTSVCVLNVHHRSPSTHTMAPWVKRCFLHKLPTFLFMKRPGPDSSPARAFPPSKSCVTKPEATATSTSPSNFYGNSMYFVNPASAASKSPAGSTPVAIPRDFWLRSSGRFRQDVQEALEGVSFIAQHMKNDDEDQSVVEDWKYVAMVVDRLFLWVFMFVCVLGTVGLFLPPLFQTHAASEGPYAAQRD
Sequence of a6b3b4a5 (Q05901 25-458 partner limits assumed): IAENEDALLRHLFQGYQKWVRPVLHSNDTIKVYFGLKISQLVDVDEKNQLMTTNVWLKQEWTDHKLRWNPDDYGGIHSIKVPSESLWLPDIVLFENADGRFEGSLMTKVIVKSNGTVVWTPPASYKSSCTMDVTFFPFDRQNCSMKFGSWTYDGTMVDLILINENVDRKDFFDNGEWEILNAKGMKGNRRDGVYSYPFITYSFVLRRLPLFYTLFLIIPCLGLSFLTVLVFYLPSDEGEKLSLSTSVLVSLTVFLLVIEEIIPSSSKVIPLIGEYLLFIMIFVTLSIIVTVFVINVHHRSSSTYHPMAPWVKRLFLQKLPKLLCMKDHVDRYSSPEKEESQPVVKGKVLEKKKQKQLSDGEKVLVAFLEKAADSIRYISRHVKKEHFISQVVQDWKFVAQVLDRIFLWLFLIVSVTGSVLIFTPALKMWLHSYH
Sequence of a6b3b4a5 (P30532 23-468 partner): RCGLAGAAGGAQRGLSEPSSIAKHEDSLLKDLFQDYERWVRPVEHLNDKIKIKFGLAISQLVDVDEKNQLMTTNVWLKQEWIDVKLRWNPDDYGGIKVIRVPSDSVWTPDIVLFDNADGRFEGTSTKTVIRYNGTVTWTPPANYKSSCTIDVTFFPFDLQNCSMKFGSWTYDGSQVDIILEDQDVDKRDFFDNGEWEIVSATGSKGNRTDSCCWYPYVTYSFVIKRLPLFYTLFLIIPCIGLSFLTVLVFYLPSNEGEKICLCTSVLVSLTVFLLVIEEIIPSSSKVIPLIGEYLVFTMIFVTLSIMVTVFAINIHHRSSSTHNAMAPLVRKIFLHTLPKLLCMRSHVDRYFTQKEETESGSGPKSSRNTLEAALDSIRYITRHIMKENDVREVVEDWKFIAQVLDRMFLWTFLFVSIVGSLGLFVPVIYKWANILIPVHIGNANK
Sequence of high and low sensitivity alpha4beta2-containing NNR subtypes (P43681 29-627 limits assumed): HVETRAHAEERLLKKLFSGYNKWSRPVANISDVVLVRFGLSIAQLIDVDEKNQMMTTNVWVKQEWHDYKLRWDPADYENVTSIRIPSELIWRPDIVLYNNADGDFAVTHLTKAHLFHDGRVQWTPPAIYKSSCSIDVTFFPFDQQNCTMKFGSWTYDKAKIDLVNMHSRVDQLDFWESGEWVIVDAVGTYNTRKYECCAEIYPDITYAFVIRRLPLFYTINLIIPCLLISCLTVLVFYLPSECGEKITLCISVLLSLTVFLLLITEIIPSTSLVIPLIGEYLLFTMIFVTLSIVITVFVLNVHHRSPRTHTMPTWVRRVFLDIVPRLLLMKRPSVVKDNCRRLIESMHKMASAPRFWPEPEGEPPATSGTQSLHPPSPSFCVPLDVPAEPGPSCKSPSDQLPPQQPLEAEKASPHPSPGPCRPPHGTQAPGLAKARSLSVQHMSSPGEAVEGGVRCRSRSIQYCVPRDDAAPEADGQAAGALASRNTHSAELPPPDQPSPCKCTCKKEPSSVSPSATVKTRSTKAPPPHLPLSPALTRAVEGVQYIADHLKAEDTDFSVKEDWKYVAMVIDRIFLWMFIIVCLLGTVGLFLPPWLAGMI
Sequence of high and low sensitivity alpha4beta2-containing NNR subtypes (P17787 26-502): as the sequence (P17787 26-502) above
Sequence of human α4β2 (P43681 29-627 limits assumed): as the sequence (P43681 29-627 limits assumed) above
Sequence of human α4β2 (P17787 26-502): as the sequence (P17787 26-502) above

C(=C\[C@H]1CCNC1)/c1cncnc1 [Compound 1, (R)-5-((E)-2-pyrrolidin-3-ylvinyl)pyrimidine]
Ki (a4b4): 0.68 µM | Emax ([1]; Ca++ Flux): 35% | Emax ([1]; Rb+ Flux, single point): 19% | Activity at rat ganglion receptors ([1]; PC-12 cells): receptors in PC-12 cells was low (19%). | EC50 ([1]; Rat ganglion-type (a3b4*), Ca++ Flux): 53 µM | Ki [2]: > 10 µM | IC50 (hERG channel): 285 µM | Ki (a6b3b4a5): 1.1 µM | activity at high and low sensitivity alpha4beta2-containing NNR subtypes [3]: agonist activity | metabolic stability [4]: relatively stable | Ki ([5]; Rat a7, assay and tissue type not given): 3.5 µM | Ki ([5]; [3H]-MLA, rat brain hippocampal membranes): 5.5 µM and 5.53 µM | Ki (human α3β2): 0.027 µM | NOAEL at 13 weeks ([6]; both sexes, in vivo, 13-week rat study, oral, as summarised): 30 mg/kg | Tmax ([6]; both sexes, rat, in vivo, po): 0.5 to 2 h | NOAEL at 13 weeks ([6]; both sexes, rat, in vivo, rats, oral gavage once daily, 13 weeks): 30 mg/kg/day | AUC [6, 11]: 10200 ng·h/mL | Cmax [6, 11]: 3150 ng/mL | deaths ([6]; females, 300 mg/kg/day): Two of 15 | incidence of minimal hepatocellular hypertrophy ([6]; male, rat, in vivo, 30 mg/kg/day, 13 weeks): 7 of 10 | AUC [6, 12]: 12100 ng·h/mL | Cmax [6, 12]: 2570 ng/mL | changes in physical exam, blood or urine laboratory measurements or ECG measurements ([7]; 108 human subjects, oral doses 5 mg to 200 mg): No clinical noteworthy changes | adverse events reported ([7]; all studies, oral doses 5 mg to 200 mg): typically GI-related | changes in ECG measurements ([7]; clinical studies to date): no noteworthy changes | Ki (human α4β2): 0.017 µM | solubility ([8]; 0.1N HCl, simulated gastric fluid): > 10000 µg/mL | solubility ([8]; Water (pH 5.9)): > 10000 µg/mL | solubility ([8]; aqueous buffer, 0.1M citrate buffer (pH 4.0)): > 10000 µg/mL | solubility ([8]; aqueous buffer, 0.1M phosphate buffer (pH 6.8)): > 10000 µg/mL | convulsions in combination with subconvulsant pentylenetetrazole ([9]; 10, 30, 100 mg/kg po): no noteworthy changes; also recorded: not did not induce convulsions. D- | NOEL, convulsant properties ([9]; po with pentylenetetrazole): The NOEL was 100 mg/kg. | EC50 (a3b2; Human a3b2, Ca++ Flux): 8.7 µM | Emax (a3b2; Human a3b2, Ca++ Flux): 66% | agonist type (a3b2; α3β2 subtype): partial agonist | analgesic effects after formalin injection, Day 1 (formalin test): mg/kg) and Aspirin at 100 mg/kg failed | Cmax [10, 13]: 1710 ng/mL | Tmax [10, 13]: 0.25 h | AUC(0-t) ([10]; Sprague-Dawley, plasma, S-D rat, 30 mg/kg [14C]-Compound 1, oral, t = 168 h): 3310 ng·h/mL | half-life ([10]; Sprague-Dawley, plasma, S-D rat, 30 mg/kg [14C]-Compound 1, oral, read-out: t1/2 (converted)): 1.2 h | Cmax and AUC0-24 vs dose ([10]; male rats, 3 mg/kg group vs 0.3 mg/kg, oral): higher than dose-proportional | Cmax [10, 14]: 6.51 ng/mL | Tmax [10, 14]: 0.5 h | AUC(0-t) ([10]; male, Sprague-Dawley, plasma, S-D rat, 0.3 mg/kg Compound 1, oral, t = 25 h): 13.5 ng·h/mL | half-life ([10]; male, Sprague-Dawley, plasma, S-D rat, 0.3 mg/kg Compound 1, oral, read-out: t1/2 (converted)): 1.4 h | Cmax [10, 15]: 169 ng/mL | Tmax [10, 15]: 0.167 h | AUC(0-t) ([10]; male, Sprague-Dawley, plasma, S-D rat, 3 mg/kg Compound 1, oral, t = 25 h): 211 ng·h/mL | half-life ([10]; male, Sprague-Dawley, plasma, S-D rat, 3 mg/kg Compound 1, oral, read-out: t1/2 (converted)): 1.4 h | Kp ([10]; male, Sprague-Dawley, rat, brain, oral, 0.3 or 3 mg/kg orally, read-out: brain exposure as share of plasma exposure): ~0.15 | half-life ([10]; male, Sprague-Dawley, rat, plasma and brain, po, 0.3 or 3 mg/kg orally, read-out: half-life (plasma and brain concentrations) (converted)): 1.4 h | fraction unbound (plasma protein binding): > 0.87
